Data reported in ChEMBL document CHEMBL3758125 (J Med Chem, 2016).
Activity calls are given as the source filed them. The rule behind the calls is not given here.

Key:
Cannabinoid receptor 1 [1] = molecular target: T1, Cannabinoid receptor 1 (Homo sapiens, UniProt P21554); assay: Negative allosteric modulator activity at human CB1R expressed in CHO-K1 cells assessed as inhibition of CP55,940-induced beta-arrestin recruitment preincubated for 30 mins followed by CP55,940 addition measured for 90 mins by PathHunter assay relative to control; assay type: cell-based
Cannabinoid receptor 1 [2] = molecular target: T1, Cannabinoid receptor 1; assay: Negative allosteric modulator activity at human CB1R expressed in CHO-K1 cells assessed as effect on CP55,940-induced inhibition of forskolin-induced cAMP accumulation preincubated for 30 mins followed by CP55,940 addition measured for 30 mins by HitHunter assay relative to control; assay type: functional, cell-based
Cannabinoid receptor 1 [3] = molecular target: T1, Cannabinoid receptor 1; assay: Negative allosteric modulator activity at human CB1R expressed in CHO-K1 cells assessed as effect on CP55,940-induced inhibition of forskolin-induced cAMP accumulation preincubated for 30 mins followed by CP55,940 addition measured for 30 mins by HitHunter assay; assay type: functional, cell-based
Cannabinoid receptor 1 [4] = molecular target: T1, Cannabinoid receptor 1; assay: Selectivity index, ratio of EC50 for human CB1R by cAMP assay to EC50 for human CB1R by beta-arrestin recruitment assay; assay type: functional, single protein
Cannabinoid receptor 1 [5] = molecular target: T1, Cannabinoid receptor 1; assay: Negative allosteric modulator activity at human CB1R expressed in CHO-K1 cells assessed as inhibition of CP55,940-induced beta-arrestin recruitment preincubated for 30 mins followed by CP55,940 addition measured for 90 mins by PathHunter assay; assay type: cell-based
Cannabinoid receptor 1 [6] = molecular target: T1, Cannabinoid receptor 1; assay: Positive allosteric modulator activity at human CB1R expressed in CHO cells assessed as enhanced binding of [3H]CP55,940 after 60 mins by liquid scintillation spectrometric analysis relative to control; assay type: cell-based
[7] = molecular target: Cannabinoid receptor 1 (Mus musculus) (UniProt P47746); assay: Negative allosteric modulator activity at CB1R in mouse brain membranes assessed as Emax for CP55,940-induced [35S]GTPgammaS binding at 1 uM preincubated for 60 mins prior to [35S]GTPgammaS addition by liquid scintillation spectrometric analysis relative to control (reference value: […]%); assay type: functional, cell membranes; conditions: Membrane
Cannabinoid receptor 1 [8] = molecular target: T1, Cannabinoid receptor 1; assay: Positive allosteric modulator activity at human CB1R expressed in CHO cells assessed as enhanced binding of [3H]CP55,940 after 60 mins by liquid scintillation spectrometric analysis; assay type: cell-based
[9] = molecular target: Cannabinoid receptor 1 (Mus musculus) (UniProt P47746); assay: Antagonist activity at CB1R in mouse brain membranes assessed as inhibition of CP55,940-induced [35S]GTPgammaS binding at 1 uM preincubated for 60 mins prior to [35S]GTPgammaS addition by liquid scintillation spectrometric analysis; assay type: functional, cell membranes; conditions: Membrane
Cannabinoid receptor 1 [10] = molecular target: T1, Cannabinoid receptor 1; assay: Positive allosteric modulator activity at human CB1R expressed in HEK293 cell membranes assessed as enhanced specific binding of [3H]CP55,940 at 500 nM pre-incubated for 60 mins before [3H]CP55,940 addition followed by drug wash-out by liquid scintillation spectrometric-based saturation binding assay
Cannabinoid receptor 1 [11] = molecular target: T1, Cannabinoid receptor 1; assay: Inverse agonist activity at human CB1R expressed in CHO-K1 cells assessed as [35S]GTPgammaS binding at 10 uM preincubated for 60 mins prior to [35S]GTPgammaS addition by liquid scintillation spectrometric analysis; assay type: functional, cell-based
Cannabinoid receptor 1 [12] = molecular target: T1, Cannabinoid receptor 1; assay: Agonist activity at human CB1R expressed in CHO-K1 cells assessed as inhibition of CP55,940-induced [35S]GTPgammaS binding up to 1 uM preincubated for 60 mins prior to [35S]GTPgammaS addition by liquid scintillation spectrometric analysis; assay type: functional, cell-based
[13] = molecular target: Cannabinoid receptor 1 (Mus musculus) (UniProt P47746); assay: Agonist activity at CB1R in mouse brain membranes assessed as [35S]GTPgammaS binding at 100 nM and 1 uM preincubated for 60 mins prior to [35S]GTPgammaS addition by liquid scintillation spectrometric analysis; assay type: functional, cell membranes; conditions: Membrane
[14] = molecular target: Cannabinoid receptor 1 (Mus musculus) (UniProt P47746); assay: Inverse agonist activity at CB1R in mouse brain membranes assessed as [35S]GTPgammaS binding at 100 nM and 1 uM preincubated for 60 mins prior to [35S]GTPgammaS addition by liquid scintillation spectrometric analysis; assay type: functional, cell membranes; conditions: Membrane
[15] = molecular target: Cannabinoid receptor 1 (Mus musculus) (UniProt P47746); conditions: Brain, Membrane, at 100 nM
Cannabinoid receptor 1 [16] = molecular target: T1, Cannabinoid receptor 1; assay: Activity at human CB1R expressed in HEK293 cell membranes assessed as reduction in binding of [3H]CP55,940 at 500 nM after 90 to 120 mins by liquid scintillation spectrometric analysis
Cannabinoid receptor 1 [17] = molecular target: T1, Cannabinoid receptor 1; assay: Inverse agonist activity at human CB1R expressed in CHO-K1 cells assessed as inhibition [35S]GTPgammaS binding up to 1 uM preincubated for 60 mins prior to [35S]GTPgammaS addition by liquid scintillation spectrometric analysis; assay type: functional, cell-based
Cannabinoid receptor 1 [18] = molecular target: T1, Cannabinoid receptor 1; assay: Positive allosteric modulator activity at human CB1R expressed in HEK293 cell membranes assessed as enhanced binding of [3H]CP55,940 at 500 nM by liquid scintillation spectrometric analysis; conditions: TDE = time-dependent effect
[19] = molecular target: Cannabinoid receptor 1 (Mus musculus) (UniProt P47746); assay: Activity at CB1R in mouse brain membranes assessed as inhibition of CP55,940-induced [35S]GTPgammaS binding at 100 nM and 1 uM preincubated for 60 mins prior to [35S]GTPgammaS addition by liquid scintillation spectrometric analysis relative to control; assay type: functional, cell membranes; conditions: Membrane
[20] = molecular target: Cannabinoid receptor 1 (Mus musculus) (UniProt P47746); assay: Negative allosteric modulator activity at CB1R in mouse brain membranes assessed as inhibition of CP55,940-induced [35S]GTPgammaS binding at 100 nM and 1 uM preincubated for 60 mins prior to [35S]GTPgammaS addition by liquid scintillation spectrometric analysis; assay type: functional, cell membranes; conditions: Membrane

Cannabinoid receptor 1 (Mus musculus), sequence (P47746 whole entry): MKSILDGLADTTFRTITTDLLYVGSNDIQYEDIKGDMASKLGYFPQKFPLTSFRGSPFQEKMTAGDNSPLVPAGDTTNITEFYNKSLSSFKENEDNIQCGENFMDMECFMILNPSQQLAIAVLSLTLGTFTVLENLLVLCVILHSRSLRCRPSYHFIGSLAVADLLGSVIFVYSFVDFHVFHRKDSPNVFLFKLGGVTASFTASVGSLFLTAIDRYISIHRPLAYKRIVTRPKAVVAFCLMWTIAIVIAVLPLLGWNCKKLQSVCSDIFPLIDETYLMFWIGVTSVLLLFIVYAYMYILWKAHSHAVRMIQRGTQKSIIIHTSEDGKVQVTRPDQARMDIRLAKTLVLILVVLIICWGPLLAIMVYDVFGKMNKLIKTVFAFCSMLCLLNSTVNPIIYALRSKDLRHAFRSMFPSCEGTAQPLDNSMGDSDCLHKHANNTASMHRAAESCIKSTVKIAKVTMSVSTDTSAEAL
T1 sequence (P21554 whole entry): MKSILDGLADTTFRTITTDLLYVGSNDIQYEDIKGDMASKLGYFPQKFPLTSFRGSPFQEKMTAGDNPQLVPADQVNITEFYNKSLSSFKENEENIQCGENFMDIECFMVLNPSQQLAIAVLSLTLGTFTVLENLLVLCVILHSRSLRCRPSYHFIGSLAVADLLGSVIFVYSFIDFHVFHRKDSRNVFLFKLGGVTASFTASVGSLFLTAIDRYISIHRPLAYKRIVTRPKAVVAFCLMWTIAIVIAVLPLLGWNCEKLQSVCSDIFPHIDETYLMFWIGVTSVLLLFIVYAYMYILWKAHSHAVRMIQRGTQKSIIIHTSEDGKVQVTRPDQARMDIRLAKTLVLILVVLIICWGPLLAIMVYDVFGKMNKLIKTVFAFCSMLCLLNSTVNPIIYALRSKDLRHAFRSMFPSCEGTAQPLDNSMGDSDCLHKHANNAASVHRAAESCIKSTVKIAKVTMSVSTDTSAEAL

Compound	Emax (Cannabinoid receptor 1 [1]) [%]	Emax (Cannabinoid receptor 1 [2]) [%]	EC50 (Cannabinoid receptor 1 [3]) [µM]	Ratio EC50 (Cannabinoid receptor 1 [4])	EC50 (Cannabinoid receptor 1 [5]) [µM]	Emax (Cannabinoid receptor 1 [6]) [%]	other results
O=C(Nc1ccc(Cl)cc1)Nc1cccc(-c2cccc(N3CCCC3)n2)c1	106	115	–	–	–	–	–
[N-]=[N+]=NCCc1c(C(=O)NCCc2ccc(N3CCCCC3)cc2)[nH]c2ccc(Cl)cc12	105	96.8	1.12	14	–	–	–
[N-]=[N+]=Nc1ccc(NC(=O)Nc2cccc(-c3cccc(N4CCCC4)n3)c2)cc1	105	103	0.166	3	0.0282	–	–
CCCCCCC(C)(C)c1ccc([C@@H]2C[C@H](O)CC[C@H]2CCCO)c(O)c1	–	–	–	–	–	-90.1	–
CCc1c(C(=O)NCCc2ccc(N3CCCCC3)cc2)[nH]c2ccc(Cl)cc12	105	78.1	0.324	–	0.00905	109	Emax [7]: 32.4%; EC50 (Cannabinoid receptor 1 [8]): 0.083 µM; inhibition [9]: Active; Activity (Cannabinoid receptor 1 [10]): inactive; Activity (Cannabinoid receptor 1 [11]): Active
CCc1c(C(=O)NCCc2ccc(N3CCCCC3)cc2)[nH]c2ccc(N=[N+]=[N-])cc12	105	87.1	–	14	–	–	–
CCc1c(C(=O)NCCc2ccc(N3CCCCC3)cc2)[nH]c2ccc(N=C=S)cc12	103	111	0.174	14	0.00209	116	Activity (Cannabinoid receptor 1 [12]): inactive; Emax [7]: 11.2%; EC50 (Cannabinoid receptor 1 [8]): 0.0196 µM; Activity [13]: inactive; Activity [14]: inactive; Emax [15]: 71.7%; inhibition (Cannabinoid receptor 1 [16]): Active; Activity (Cannabinoid receptor 1 [17]): inactive; Activity (Cannabinoid receptor 1 [18]): tde; fold change (FC) (Cannabinoid receptor 1 [10]): 2.25; Emax [19]: 87.8%; inhibition [20]: Dose-dependent effect
O=C(NCCc1ccc(N2CCCCC2)cc1)c1[nH]c2ccc(Cl)cc2c1CCN=C=S	107	-8.84	> 10	14	0.209	–	–
O=C(Nc1ccc(C(=O)c2ccccc2)cc1)Nc1cccc(-c2cccc(N3CCCC3)n2)c1	77.4	28.1	> 10	3	0.683	–	–
O=C(Nc1ccc(N=C=S)cc1)Nc1cccc(-c2cccc(N3CCCC3)n2)c1	106	78.2	–	3	0.0429	–	–
